# “And” between values parts separate entries of the source, which are not always exact repeats. Equal values may be shown once. Inconclusive results and toxic doses are left out.
# Tested on: P388 leukemia ip, CD2F1 mice, survival T/C
# Experiment: NCI In Vivo Anticancer Drug Screen. Data for tumor model P388 Leukemia (intraperitoneal) in CD2F1 (CDF1) mice
# Conditions: endpoint: median survival time, higher = longer survival
# In short: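 Mice carrying the transplanted tumor received test compound or vehicle. Survival was recorded in each group, and the value is the treated-group measurement divided by that of the vehicle-treated control group.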
# [1] = dose: 100.0 mg/kg/injection, schedule: Q04DX003 (ip), vehicle: saline with Tween-80
# [2] = dose: 200.0 mg/kg/injection, schedule: Q04DX003 (ip), vehicle: saline with Tween-80
# [3] = dose: 400.0 mg/kg/injection, schedule: Q04DX003 (ip), vehicle: saline with Tween-80
# [4] = dose: 60.0 mg/kg/injection, schedule: Q01DX005 (ip), vehicle: saline with Tween-80
# [5] = dose: 120.0 mg/kg/injection, schedule: Q01DX005 (ip), vehicle: saline with Tween-80
# [6] = dose: 12.5 mg/kg/injection, schedule: Q01DX009 (ip), vehicle: saline with Tween-80
# [7] = dose: 50.0 mg/kg/injection, schedule: Q01DX009 (ip), vehicle: Klucel (hydroxypropylcellulose) (HPC)
# [8] = dose: 60.0 mg/kg/injection, schedule: Q01DX005 (ip), vehicle: saline
# [9] = dose: 120.0 mg/kg/injection, schedule: Q01DX005 (ip), vehicle: saline
# [10] = dose: 25.0 mg/kg/injection, schedule: Q01DX009 (ip), vehicle: saline
# [11] = dose: 50.0 mg/kg/injection, schedule: Q01DX009 (ip), vehicle: saline
# [12] = dose: 100.0 mg/kg/injection, schedule: Q01DX009 (ip), vehicle: saline
# [13] = dose: 50.0 mg/kg/injection, schedule: Q01DX005 (ip), vehicle: saline with Tween-80
# [14] = dose: 100.0 mg/kg/injection, schedule: Q01DX005 (ip), vehicle: saline with Tween-80
# [15] = dose: 200.0 mg/kg/injection, schedule: Q01DX005 (ip), vehicle: saline with Tween-80
compound,measurement,setting,value
COc1cc2c(cc1I)-c1c(cc(OC)c(OC)c1OC)CC[C@@H]2NC(C)=O,T/C,"dose: 88.0 mg/kg/injection, schedule: Q01DX009 (ip), vehicle: saline with Tween-80",118 % of control
same,T/C,"dose: 100.0 mg/kg/injection, schedule: Q01DX009 (ip), vehicle: saline sonified",95 % of control
same,T/C,"dose: 100.0 mg/kg/injection, schedule: Q01DX009 (ip), vehicle: saline with Tween-80",95 % of control
same,T/C,[1],100 % of control
same,T/C,"dose: 200.0 mg/kg/injection, schedule: Q01DX009 (ip), vehicle: saline with Tween-80",100 % of control
same,T/C,[2],100 % of control
same,T/C,"dose: 400.0 mg/kg/injection, schedule: Q01DX009 (ip), vehicle: saline with Tween-80",104 % of control
same,T/C,[3],90 % of control
CCOC(=O)c1cc(/C=C/c2ccc(Cl)cc2Cl)on1,T/C,[4],100 % of control
same,T/C,[5],90 % of control
COC(=O)c1nnn(-c2ccccc2C(C)C)c1C(=O)c1ccccc1,T/C,[4],94 % of control
same,T/C,[5],109 % of control
same,T/C,"dose: 240.0 mg/kg/injection, schedule: Q01DX005 (ip), vehicle: saline with Tween-80",104 % of control
O/N=C(\CC(O)(C(F)(F)F)C(F)(F)F)c1cccs1,T/C,[1],100 % of control
same,T/C,[2],95 % of control
same,T/C,[3],108 % of control
COC(=O)C1=C/CCCN(CCC2OCCO2)/C=C\1C(=O)OC,T/C,[1],106 % of control
same,T/C,[2],99 % of control
same,T/C,[3],108 % of control
O=C(CNC(=O)c1ccc(Cl)cc1Cl)N/N=C/c1ccc(Cl)c(Cl)c1,T/C,"dose: 3.13 mg/kg/injection, schedule: Q01DX009 (ip), vehicle: saline with Tween-80",104 % of control
same,T/C,"dose: 6.25 mg/kg/injection, schedule: Q01DX009 (ip), vehicle: saline with Tween-80",108 % of control
same,T/C,[6],104 % of control
CN=C(NC)c1ccc(NC(=O)c2ccc(C(=O)Nc3ccc(C(=NC)NC)cc3)c([N+](=O)[O-])c2)cc1,T/C,"dose: 1.56 mg/kg/injection, schedule: Q01DX005 (ip), vehicle: Klucel (hydroxypropylcellulose) (HPC)",106 % of control
same,T/C,"dose: 3.12 mg/kg/injection, schedule: Q01DX005 (ip), vehicle: Klucel (hydroxypropylcellulose) (HPC)",118 % of control
O=c1c2cc3ccccc3n2c(=O)c2cc3ccccc3n12,T/C,[7],87 % of control
same,T/C,"dose: 100.0 mg/kg/injection, schedule: Q01DX009 (ip), vehicle: Klucel (hydroxypropylcellulose) (HPC)",91 % of control
same,T/C,"dose: 200.0 mg/kg/injection, schedule: Q01DX009 (ip), vehicle: Klucel (hydroxypropylcellulose) (HPC)",92 % of control
[O-]c1on[n+](-c2ccccc2)c1CN1CCOCC1,T/C,"dose: 50.0 mg/kg/injection, schedule: Q01DX005 (ip), vehicle: Klucel (hydroxypropylcellulose) (HPC)",107 % of control
same,T/C,"dose: 100.0 mg/kg/injection, schedule: Q01DX005 (ip), vehicle: Klucel (hydroxypropylcellulose) (HPC)",111 % of control
same,T/C,"dose: 200.0 mg/kg/injection, schedule: Q01DX005 (ip), vehicle: Klucel (hydroxypropylcellulose) (HPC)",102 % of control
Cc1ccc(C)c(CN(CCO)CCO)c1,T/C,[8],109 % of control
same,T/C,[9],102 % of control
O=S=C(c1ccccc1)N(Cc1ccccc1)Cc1ccccc1,T/C,[10],96 % of control
same,T/C,[11],97 % of control
same,T/C,[12],97 % of control
C[N+]12CC[N+](C)(CC1)CC2,T/C,"dose: 12.5 mg/kg/injection, schedule: Q01DX009 (ip), vehicle: saline",101 % of control
same,T/C,[10],109 % of control
same,T/C,[11],115 % of control
[CH3][Sn]([CH3])([Br])[Br].c1ccc(-c2nnc(-c3ccccn3)nc2-c2ccccc2)cc1,T/C,"dose: 30.0 mg/kg/injection, schedule: Q01DX005 (ip), vehicle: Klucel (hydroxypropylcellulose) (HPC)",107 % of control
same,T/C,"dose: 60.0 mg/kg/injection, schedule: Q01DX005 (ip), vehicle: Klucel (hydroxypropylcellulose) (HPC)",113 % of control and 95 % of control
same,T/C,"dose: 120.0 mg/kg/injection, schedule: Q01DX005 (ip), vehicle: Klucel (hydroxypropylcellulose) (HPC)",100 % of control and 106 % of control
OCC(CO)(CO)NCCCNC(CO)(CO)CO,T/C,[8],98 % of control
same,T/C,[9],101 % of control
same,T/C,"dose: 240.0 mg/kg/injection, schedule: Q01DX005 (ip), vehicle: saline",97 % of control
CN1C(=O)N(C)C(=O)C(Cl)(Cl)C1=O,T/C,"dose: 12.5 mg/kg/injection, schedule: Q01DX005 (ip), vehicle: Klucel (hydroxypropylcellulose) (HPC)",101 % of control
same,T/C,"dose: 25.0 mg/kg/injection, schedule: Q01DX005 (ip), vehicle: Klucel (hydroxypropylcellulose) (HPC)",97 % of control
CCCCCCCCCCCc1c(O)c(O)c(-c2ccccn2)c2nonc12,T/C,[13],106 % of control
same,T/C,[14],103 % of control
same,T/C,[15],98 % of control
CCCCCCC(=O)/C=C/c1ccc(OCOC)cc1,T/C,"dose: 50.0 mg/kg/injection, schedule: Q01DX009 (ip), vehicle: saline + alcohol",97 % of control
same,T/C,"dose: 100.0 mg/kg/injection, schedule: Q01DX009 (ip), vehicle: saline + alcohol",121 % of control
same,T/C,"dose: 200.0 mg/kg/injection, schedule: Q01DX009 (ip), vehicle: saline + alcohol",100 % of control
Nc1[nH]c(=S)[nH]c(=S)c1N,T/C,"dose: 100.0 mg/kg/injection, schedule: Q04DX002 (ip), vehicle: saline with Tween-80",102 % of control
same,T/C,"dose: 200.0 mg/kg/injection, schedule: Q04DX002 (ip), vehicle: saline with Tween-80",98 % of control
same,T/C,"dose: 400.0 mg/kg/injection, schedule: Q04DX002 (ip), vehicle: saline with Tween-80",94 % of control
C[n+]1c2n(c3ccccc31)CCn1c-2[n+](C)c2ccccc21,T/C,"dose: 12.5 mg/kg/injection, schedule: Q01DX009 (ip), vehicle: Klucel (hydroxypropylcellulose) (HPC)",100 % of control and 103 % of control and 117 % of control
same,T/C,"dose: 25.0 mg/kg/injection, schedule: Q01DX009 (ip), vehicle: Klucel (hydroxypropylcellulose) (HPC)",102 % of control and 103 % of control (2×)
same,T/C,[7],100 % of control and 120 % of control and 96 % of control
C=C1C(=O)OC2/C=C(\C)CC/C=C(\C)CC(OC(=O)/C(=C/C)CO)C12 (stereo not drawn),T/C,"dose: 25.0 mg/kg/injection, schedule: Q01DX001 (ip), vehicle: Klucel (hydroxypropylcellulose) (HPC)",101 % of control
same,T/C,"dose: 50.0 mg/kg/injection, schedule: Q01DX001 (ip), vehicle: Klucel (hydroxypropylcellulose) (HPC)",96 % of control
same,T/C,"dose: 100.0 mg/kg/injection, schedule: Q01DX001 (ip), vehicle: Klucel (hydroxypropylcellulose) (HPC)",110 % of control
CC1(COc2ccccc2OCC2(C)CO2)CO1 (stereo not drawn),T/C,"dose: 1.88 mg/kg/injection, schedule: Q01DX005 (ip), vehicle: saline with Tween-80",102 % of control
same,T/C,"dose: 3.75 mg/kg/injection, schedule: Q01DX005 (ip), vehicle: saline with Tween-80",100 % of control
same,T/C,"dose: 7.5 mg/kg/injection, schedule: Q01DX005 (ip), vehicle: saline with Tween-80",98 % of control
same,T/C,"dose: 15.0 mg/kg/injection, schedule: Q01DX005 (ip), vehicle: saline with Tween-80",100 % of control
same,T/C,"dose: 30.0 mg/kg/injection, schedule: Q01DX005 (ip), vehicle: saline with Tween-80",100 % of control
same,T/C,[4],102 % of control
same,T/C,[5],107 % of control
CC(C)c1cccc(O)c1O,T/C,[12],97 % of control
CN(C)[C@@H]1C(=O)C(C(=O)NCN2CCN(C(=N)N=C(N)N)CC2)=C(O)[C@@]2(O)C(=O)C3=C(O)c4c(O)cccc4[C@@](C)(O)[C@H]3C[C@@H]12,T/C,"dose: 1.8 mg/kg/injection, schedule: Q01DX005 (ip), vehicle: saline",111 % of control
same,T/C,"dose: 3.0 mg/kg/injection, schedule: Q01DX005 (ip), vehicle: saline",117 % of control
same,T/C,"dose: 8.33 mg/kg/injection, schedule: Q01DX005 (ip), vehicle: saline",154 % of control
same,T/C,"dose: 10.0 mg/kg/injection, schedule: Q01DX005 (ip), vehicle: saline",89 % of control
Cn1/c2cc/c1=C(\c1ccc(S(=O)(=O)O)cc1)c1ccc([n-]1)/C(c1ccc(S(=O)(=O)O)cc1)=c1/cc/c([nH]1)=C(\c1ccc(S(=O)(=O)O)cc1)c1ccc([n-]1)/C=2c1ccc(S(=O)(=O)O)cc1.O.O=S(=O)(O)C(F)(F)F.[Cu+2],T/C,[6],112 % of control
same,T/C,"dose: 25.0 mg/kg/injection, schedule: Q01DX009 (ip), vehicle: saline with Tween-80",121 % of control
same,T/C,"dose: 50.0 mg/kg/injection, schedule: Q01DX009 (ip), vehicle: saline with Tween-80",119 % of control
same,T/C,[11],92 % of control
same,T/C,[12],100 % of control
CC1=CCCN(C)C1c1ccccc1 (stereo not drawn),T/C,"dose: 50.0 mg/kg/injection, schedule: Q01DX005 (ip), vehicle: saline",99 % of control
same,T/C,"dose: 100.0 mg/kg/injection, schedule: Q01DX005 (ip), vehicle: saline",99 % of control
COc1ccc2c(c1)O[C@H]1c3ccc(O)cc3OC[C@@H]21,T/C,[13],100 % of control
same,T/C,[14],91 % of control
same,T/C,[15],91 % of control

# From PubChem BioAssay AID330 (DTP/NCI, 2004)
